Here are results for one molecule from patent US20230391761A1, “S[…]-ALANINATE DERIVATIVES” (BAYER AKTIENGESELLSCHAFT, priority 2021, published 2023).

The series can be described thus: Solubility in Citrate Buffer pH 4. Particulars: 25 °C, pH 4, aqueous buffer, thermodynamic from solid.

Where only a bound is given, the exact number is not on record here.

What is called solubility is how much of the substance goes into solution per volume. A high value points to a readily soluble substance.

Procedure: 25 mg compound are placed in 2 ml solvent. […] Thereafter, the solution or suspension is filtered and the remaining solution is analyzed via HPLC. The solubility is determined by comparison of the total area of the substance peak to a calibration curve (external standard).
Thereafter, the solution was centrifuged and analyzed via HPLC. The solubility was determined by comparison of the total area of the substance peak to a calibration curve (external standard). The measurements were conducted in triplicates.

As for `CCc1c(N2CC[C@H](O)C2=O)cccc1S(=O)(=O)N[C@@H](CNC(=O)c1ccc(Cl)s1)C(=O)OCCc1nccn1C.Cl` [Example 2, 2-(1-Methyl-1H-imidazol-2-yl)ethyl 3-[(5-chlorothiophene-2-carbonyl)amino]-N-{2-ethyl-3-[(3S)-3-hydroxy-2-oxopyrrolidin-1-yl]benzene-1-sulfonyl}-S-alaninate hydrochloride], the solubility at 24 h is above 500 mg/mL.
